Experimental data taken from patent US20250320213A1, “Nitrogen-Containing Heterocyclic Compounds” (Pfizer Inc., priority 2024, published 2025).
Like-named read-outs stand apart in the source and are kept apart here.

Columns and labels:
[1] = tested on: CCL17 secretion in peripheral human whole blood; assay: Human Whole Blood (HWB) CCL17 TR-FRET Assay (IL-13 stimulated CCL17 secretion); assay type: cell-based
How it was run: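 Compounds are titrated (11 points, 3-fold, duplicate) into fresh heparinized human whole blood and held 2 h at 37 °C before IL-13 challenge (10 ng/mL final). After 48 h at 37 °C, serum CCL17 is measured by TR-FRET sandwich assay and IC50 values are calculated.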

STAT6 = target: T1, STAT6 (Homo sapiens, UniProt P42226); assay: STAT6 Reporter Luciferase Assay (IL-13 stimulated HaCaT keratinocyte NanoLuc reporter cells); assay type: cell-based; conditions: read-out: Reporter EC50
T1 construct: stably transfected HaCaT keratinocyte cell line, which expresses NanoLuc luciferase reporter gene under the transcriptional control of the STAT6 responsive promoter; endogenous in cells; host or cells: HaCaT keratinocyte reporter cell line (stably transfected with a NanoLuc reporter)
T1 sequence (P42226 1-847): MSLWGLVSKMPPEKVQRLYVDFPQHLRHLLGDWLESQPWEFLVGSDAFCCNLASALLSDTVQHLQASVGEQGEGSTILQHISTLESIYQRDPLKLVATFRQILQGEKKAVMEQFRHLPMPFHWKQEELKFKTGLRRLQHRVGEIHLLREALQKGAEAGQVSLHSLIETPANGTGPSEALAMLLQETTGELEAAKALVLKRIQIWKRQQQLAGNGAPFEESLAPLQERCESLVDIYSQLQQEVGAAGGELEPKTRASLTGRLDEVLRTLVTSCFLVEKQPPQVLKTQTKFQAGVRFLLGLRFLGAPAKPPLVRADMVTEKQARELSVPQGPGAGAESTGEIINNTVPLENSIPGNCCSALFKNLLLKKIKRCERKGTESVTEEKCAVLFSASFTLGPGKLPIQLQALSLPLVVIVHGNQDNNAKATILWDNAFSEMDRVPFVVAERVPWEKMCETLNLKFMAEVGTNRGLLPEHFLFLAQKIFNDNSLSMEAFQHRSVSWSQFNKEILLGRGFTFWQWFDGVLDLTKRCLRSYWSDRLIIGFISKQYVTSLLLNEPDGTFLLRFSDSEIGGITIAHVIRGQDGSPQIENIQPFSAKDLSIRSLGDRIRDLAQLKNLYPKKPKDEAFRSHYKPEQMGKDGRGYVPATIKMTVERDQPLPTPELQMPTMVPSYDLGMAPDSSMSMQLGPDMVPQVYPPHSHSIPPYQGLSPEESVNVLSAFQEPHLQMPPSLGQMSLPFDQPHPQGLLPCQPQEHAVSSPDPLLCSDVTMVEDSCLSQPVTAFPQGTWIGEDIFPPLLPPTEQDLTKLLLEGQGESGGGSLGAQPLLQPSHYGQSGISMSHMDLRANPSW
How it was run: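 Cells were plated overnight, washed, exposed to compound for two hours, stimulated with IL-13 (0.12 nM final) for four hours at 37 °C, and then lysed with Nano-Glo substrate for 15 min before luminescence reading.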

[2] = Homo sapiens, 48 h, inhibition of CCL17 secretion in human whole blood, 10 ng/mL IL13, 48 hours
[3] = STAT6 NanoLuc luciferase reporter, IL-13 stimulated HaCaT keratinocyte cells
[4] = human whole blood, 10 ng/mL IL13, 48 hours
[5] = IL-13 stimulated HaCaT STAT6 NanoLuc reporter cells
[6] = Homo sapiens, 48 h, human whole blood, IL-13 stimulated
[7] = Homo sapiens, 48 h, human whole blood, 10 ng/mL IL13, 48 hours

## CC(C)n1nc(C(=O)NCc2ccc(NC(=O)N(C)CCO)cc2)c2c1CCN(c1ccc(C(=O)N(C)C)cn1)C2 [Example 180, 5-(5-(dimethylcarbamoyl)pyridin-2-yl)-N-(4-(3-(2-hydroxyethyl)-3-methylureido)benzyl)-1-isopropyl-4,5,6,7-tetrahydro-1H-pyrazolo[4,3-c]pyridine-3-carboxamide]
[1]; [2]
  IC50: 0.055 µM
STAT6; [3]
  EC50: 0.018 µM

## CC(C)n1nc(C(=O)NCc2ccc(NC(=O)N3C[C@H]4CC[C@@H](C3)N4)c(F)c2)c2c1[C@@H](C)CN(c1ccc(C(=O)N(C)C)cc1)C2 (mixture of isomers) [Example 573, (S)-N-(4-((1RS,5SR)-3,8-diazabicyclo[3.2.1]octane-3-carboxamido)-3-fluorobenzyl)-5-(4-(dimethylcarbamoyl)phenyl)-1-isopropyl-7-methyl-4,5,6,7-tetrahydro-1H-pyrazolo[4,3-c]pyridine-3-carboxamide]
[1]; [4]
  IC50: 0.011 µM
STAT6; [5]
  EC50: 0.001 µM

## CC(C)n1nc(C(=O)NCc2ccc(NC(=O)N(C)C)cc2)c2c1[C@@H](C)[C@H](C)N(c1ncc(C(=O)N(C)C)cn1)C2 (single isomer, unassigned) [Example 449]
[1]; [6]
  IC50: 0.004 µM
STAT6; [5]
  EC50: 0.0002 µM

## CC(C)n1nc(C(=O)NCc2ccc(NC(=O)N3CCCC3)cc2)c2c1[C@@H](C)CN(c1ccc(C(=O)N(C)C)cn1)C2 [Example 583, (S)-5-(5-(dimethylcarbamoyl)pyridin-2-yl)-1-isopropyl-7-methyl-N-(4-(pyrrolidine-1-carboxamido)benzyl)-4,5,6,7-tetrahydro-1H-pyrazolo[4,3-c]pyridine-3-carboxamide]
[1]; [7]
  IC50: 0.017 µM
STAT6; [5]
  EC50: 0.001 µM

## C[C@H]1Cc2c(c(C(=O)NCc3ccc(NC(=O)N(C)C)cc3)nn2C)CN1c1ccc(-c2nccn2C)cn1 [Example 259, (S)-N-(4-(3,3-dimethylureido)benzyl)-1,6-dimethyl-5-(5-(1-methyl-1H-imidazol-2-yl)pyridin-2-yl)-4,5,6,7-tetrahydro-1H-pyrazolo[4,3-c]pyridine-3-carboxamide]
[1]; [6]
  IC50: 0.03 µM
STAT6; [5]
  EC50: 0.002 µM

## CC(C)n1nc(C(=O)NCc2ccc(NC(=O)N3CCC(C(F)F)CC3)cc2)c2c1CCN(c1ccc(C(=O)N(C)C)cn1)C2 [Example 161, N-(4-(4-(difluoromethyl)piperidine-1-carboxamido)benzyl)-5-(5-(dimethylcarbamoyl)pyridin-2-yl)-1-isopropyl-4,5,6,7-tetrahydro-1H-pyrazolo[4,3-c]pyridine-3-carboxamide]
[1]; [2]
  IC50: 0.199 µM
STAT6; [3]
  EC50: 0.007 µM

## CC(C)n1nc(C(=O)NCc2ccc(NC(=O)N3CC[C@](C)(N)C3)cc2)c2c1[C@@H](C)CN(c1ccc(C(=O)N(C)C)cc1)C2 [Example 570, (S)-N-(4-((S)-3-amino-3-methylpyrrolidine-1-carboxamido)benzyl)-5-(4-(dimethylcarbamoyl)phenyl)-1-isopropyl-7-methyl-4,5,6,7-tetrahydro-1H-pyrazolo[4,3-c]pyridine-3-carboxamide]
[1]; [7]
  IC50: 0.027 µM
STAT6; [5]
  EC50: 0.003 µM

## CNC(=O)c1ccc(CNC(=O)c2csc3c2CN(c2ccc(C(=O)N(C)C)cn2)CC3)cc1 [Example 48, 5-(5-(dimethylcarbamoyl)pyridin-2-yl)-N-(4-(methylcarbamoyl)benzyl)-4,5,6,7-tetrahydrothieno[3,2-c]pyridine-3-carboxamide]
[1]; [2]
  IC50: 3.96 µM
STAT6; [3]
  EC50: 0.952 µM

## COc1ccc2c(n1)CN(C(=O)c1ccc(N3CCc4c(c(C(=O)NCc5ccc(NC(=O)N(C)C)cc5)nn4C(C)C)C3)nc1)CC2 [Example 443, N-(4-(3,3-dimethylureido)benzyl)-1-isopropyl-5-(5-(2-methoxy-5,6,7,8-tetrahydro-1,7-naphthyridine-7-carbonyl)pyridin-2-yl)-4,5,6,7-tetrahydro-1H-pyrazolo[4,3-c]pyridine-3-carboxamide]
[1]; [6]
  IC50: 0.878 µM
STAT6; [5]
  EC50: 0.011 µM

## CCn1nc(C(=O)NCc2ccc(NC(=O)N(C)C)cn2)c2c1[C@@H](C)CN(c1ccc(C(=O)N(C)C)cn1)C2 [Example 302, (S)-5-(5-(dimethylcarbamoyl)pyridin-2-yl)-N-((5-(3,3-dimethylureido)pyridin-2-yl)methyl)-1-ethyl-7-methyl-4,5,6,7-tetrahydro-1H-pyrazolo[4,3-c]pyridine-3-carboxamide]
[1]; [6]
  IC50: 0.009 µM
STAT6; [5]
  EC50: 0.006 µM

## CCn1nc(C(=O)NCc2ccc(NC(=O)N(C)C)cc2)c2c1CCN(c1ccc(C(=O)N(C)C)cn1)[C@@H]2C [Example 513, (R)-5-(5-(dimethylcarbamoyl)pyridin-2-yl)-N-(4-(3,3-dimethylureido)benzyl)-1-ethyl-4-methyl-4,5,6,7-tetrahydro-1H-pyrazolo[4,3-c]pyridine-3-carboxamide]
[1]; [6]
  IC50: 0.018 µM
STAT6; [5]
  EC50: 0.003 µM

## CC(C)n1nc(C(=O)NCc2ccc(NC(=O)N(C)C)cc2)c2c1[C@@H](C)CN(c1ccc(C(=O)NCc3ccc(NC(=O)N(C)C)cc3)cn1)C2 [Example 501, (S)-N-(4-(3,3-dimethylureido)benzyl)-5-(5-((4-(3,3-dimethylureido)benzyl)carbamoyl)pyridin-2-yl)-1-isopropyl-7-methyl-4,5,6,7-tetrahydro-1H-pyrazolo[4,3-c]pyridine-3-carboxamide]
[1]; [6]
  IC50: 0.05 µM
STAT6; [5]
  EC50: 0.007 µM

## CN(C)C(=O)Nc1ccc(CNC(=O)c2csc3c2CN(c2ccc(C(=O)N(C)C)cn2)CC3)cc1 [Example 25, 5-(5-(dimethylcarbamoyl)pyridin-2-yl)-N-(4-(3,3-dimethylureido)benzyl)-4,5,6,7-tetrahydrothieno[3,2-c]pyridine-3-carboxamide]
[1]; [2]
  IC50: 1.49 µM
STAT6; [3]
  EC50: 0.164 µM

## CC(C)n1nc(C(=O)NCc2ccc(NC(=O)N3CCNCC3)nc2)c2c1[C@@H](C)CN(c1ccc(C(=O)N(C)C)cc1)C2 [Example 699, (S)-5-(4-(dimethylcarbamoyl)phenyl)-1-isopropyl-7-methyl-N-((6-(piperazine-1-carboxamido)pyridin-3-yl)methyl)-4,5,6,7-tetrahydro-1H-pyrazolo[4,3-c]pyridine-3-carboxamide]
[1]; [7]
  IC50: 0.027 µM
STAT6; [5]
  EC50: 0.004 µM

## CC(C)n1nc(C(=O)NCc2ccc(NC(=O)N3CCN(C)CC3)c(Cl)c2)c2c1[C@@H](C)CN(c1ccc(C(=O)N(C)C)cc1)C2 [Example 717, (S)-N-(3-chloro-4-(4-methylpiperazine-1-carboxamido)benzyl)-5-(4-(dimethylcarbamoyl)phenyl)-1-isopropyl-7-methyl-4,5,6,7-tetrahydro-1H-pyrazolo[4,3-c]pyridine-3-carboxamide]
[1]; Homo sapiens, 48 h, human whole blood, IL-13 10 ng/mL
  IC50: 0.029 µM
STAT6; [5]
  EC50: 0.003 µM

## CC[C@H]1c2c(C(=O)NCc3ccc(NC(=O)N(C)C)cc3)nn(C(C)C)c2CCN1c1ccc(C(=O)N(C)C)cn1 (single isomer, unassigned) [Example 528]
[1]; [4]
  IC50: 0.067 µM
STAT6; [5]
  EC50: 0.017 µM

## CC(C)n1nc(C(=O)NCc2ccc(NC(=O)N3CCN(C)CC3)cc2)c2c1[C@@H](C)CN(c1ccc(-n3ccccc3=O)cn1)C2 [Example 609, (S)-1-isopropyl-7-methyl-N-(4-(4-methylpiperazine-1-carboxamido)benzyl)-5-(2-oxo-2H-[1,3′-bipyridin]-6′-yl)-4,5,6,7-tetrahydro-1H-pyrazolo[4,3-c]pyridine-3-carboxamide]
[1]; [7]
  IC50: 0.007 µM
STAT6; [5]
  EC50: 0.001 µM

## CC(C)c1nc(C(=O)NCc2ccc(NC(=O)N(C)C)cc2)c2n1CCN(c1ccc(C(=O)N(C)C)cn1)C2 [Example 32, 7-(5-(dimethylcarbamoyl)pyridin-2-yl)-N-(4-(3,3-dimethylureido)benzyl)-3-isopropyl-5,6,7,8-tetrahydroimidazo[1,5-a]pyrazine-1-carboxamide]
[1]; [2]
  IC50: 0.04 µM
STAT6; [3]
  EC50: 0.009 µM

## CC(C)n1nc(C(=O)NCc2ccc(NC(=O)N3CC(N)C3)cc2)c2c1[C@@H](C)CN(c1ccc(C(=O)N(C)C)cc1)C2 [Example 627, (S)-N-(4-(3-aminoazetidine-1-carboxamido)benzyl)-5-(4-(dimethylcarbamoyl)phenyl)-1-isopropyl-7-methyl-4,5,6,7-tetrahydro-1H-pyrazolo[4,3-c]pyridine-3-carboxamide]
[1]; [7]
  IC50: 0.023 µM
STAT6; [5]
  EC50: 0.007 µM
